# Measured values published in US11566007B2, “Ras inhibitors” (Revolution Medicines, Inc., priority 2019, dated 2023).
# pIC50: −log10 of the molar value. Where two headings read alike, the source gives them in different places.
# Key:
# NCI-H358 (K-Ras G12C) = assay: CellTiter-Glo cell viability assay, NCI-H358; format: cell-based, human; details: Homo sapiens, NCI-H358, 120 h, class symbols; for pIC50: NCI-H358, 5-day treatment, read-out: Additional H358 Cell Viability assay data (K-Ras G12C, IC50)
# Summary of the method: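 Compounds were dispensed directly onto K-Ras mutant cells and incubated until day 5, then plates were equilibrated to room temperature for about 30 minutes before CellTiter-Glo luminescence. Signals were normalized as (sample/average DMSO)*100 and fitted by four-parameter logistic fit.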
# K-Ras G12C = K-Ras G12C (Homo sapiens (Human), UniProt P01116+P62937, G12C); assay: Ras-Raf (BRAF RBD) disruption / FRET / MOA assay, KRAS G12C; format: biochemical; details: KRAS G12C; Ras-Raf disruption/FRET/MOA assay; read-out: IC50* KRAS G12C FRET data
# Summary of the method: (§1)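 A 10-point, 3-fold dilution series topping at 30 μM final was incubated 3 h at 25° C with the Ras/cyclophilin A/BRAF RBD mixture.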
# KRAS G12D = KRAS G12D (Homo sapiens (Human), UniProt P01116+P62937, G12D); assay: Ras-Raf (BRAF RBD) disruption / FRET / MOA assay, KRAS G12D; format: biochemical; details: Ras-Raf disruption/FRET/MOA assay; class symbols; read-out: KRAS G12D FRET data IC50
# Summary of the method: as §1
# KRAS Q61H = KRAS Q61H (Homo sapiens (Human), UniProt P01116+P62937, Q61H); assay: Ras-Raf (BRAF RBD) disruption / FRET / MOA assay, KRAS Q61H; format: biochemical; details: Ras-Raf disruption/FRET/MOA assay; class symbols; read-out: KRAS Q61H FRET data IC50
# Summary of the method: (§2)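 Compounds (30 μM top final, 10-point 3-fold dilutions) incubated 3 h at 25° C with nucleotide-loaded Ras, cyclophilin A and BRAF RBD. Detection with 10 nM anti-His Eu-W1024 and 50 nM anti-GST allophycocyanin over another 1.5 h. Lowered TR-FRET ratio relative to DMSO wells gives IC50.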
# NRAS Q61R = NRAS Q61R (Homo sapiens (Human), UniProt P01111+P62937, Q61R); assay: Ras-Raf (BRAF RBD) disruption / FRET / MOA assay, NRAS Q61R; format: biochemical; details: NRAS Q61R; Ras-Raf disruption/FRET/MOA assay; read-out: IC50* NRAS Q61R FRET data
# Summary of the method: as §2
# NRAS WT = NRAS WT (Homo sapiens (Human), UniProt P01111+P62937); assay: Ras-Raf (BRAF RBD) disruption / FRET / MOA assay, NRAS WT; format: biochemical; details: read-out: IC50* NRAS WT FRET data
# Summary of the method: as §2
# Sequence of NRAS Q61R (P01111 whole entry Q61R): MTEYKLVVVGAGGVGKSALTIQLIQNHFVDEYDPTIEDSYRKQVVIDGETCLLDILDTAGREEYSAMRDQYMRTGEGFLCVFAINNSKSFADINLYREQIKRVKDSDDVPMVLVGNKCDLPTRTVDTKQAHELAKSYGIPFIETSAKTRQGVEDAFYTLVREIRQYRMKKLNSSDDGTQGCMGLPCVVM
# Sequence of NRAS Q61R (P62937 whole entry): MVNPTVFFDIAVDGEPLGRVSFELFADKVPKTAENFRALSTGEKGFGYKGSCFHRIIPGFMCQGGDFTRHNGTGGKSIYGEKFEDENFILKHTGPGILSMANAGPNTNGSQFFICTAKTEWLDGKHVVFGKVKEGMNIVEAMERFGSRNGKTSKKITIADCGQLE
# Sequence of KRAS Q61H (P01116-2 other isoform, or with tags, fused parts or gaps Q61H): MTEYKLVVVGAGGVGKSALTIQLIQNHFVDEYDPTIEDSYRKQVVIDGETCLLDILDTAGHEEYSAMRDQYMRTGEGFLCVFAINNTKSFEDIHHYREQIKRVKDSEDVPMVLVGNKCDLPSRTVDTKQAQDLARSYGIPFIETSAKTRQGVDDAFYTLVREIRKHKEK
# Sequence of KRAS Q61H (P62937 whole entry): as the sequence (P62937 whole entry) above
# Sequence of K-Ras G12C (P01116-2 other isoform, or with tags, fused parts or gaps G12C): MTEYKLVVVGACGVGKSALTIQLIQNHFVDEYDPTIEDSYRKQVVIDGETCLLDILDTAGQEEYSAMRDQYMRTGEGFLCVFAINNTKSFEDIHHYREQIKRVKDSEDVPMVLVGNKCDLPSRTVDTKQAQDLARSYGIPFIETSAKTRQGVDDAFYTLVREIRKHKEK
# Sequence of K-Ras G12C (P62937 whole entry): as the sequence (P62937 whole entry) above
# Sequence of NRAS WT (P01111 whole entry): as the sequence (P01111 whole entry Q61R) above, with R61Q counted along it
# Sequence of NRAS WT (P62937 whole entry): as the sequence (P62937 whole entry) above
# Sequence of KRAS G12D (P01116-2 other isoform, or with tags, fused parts or gaps G12D): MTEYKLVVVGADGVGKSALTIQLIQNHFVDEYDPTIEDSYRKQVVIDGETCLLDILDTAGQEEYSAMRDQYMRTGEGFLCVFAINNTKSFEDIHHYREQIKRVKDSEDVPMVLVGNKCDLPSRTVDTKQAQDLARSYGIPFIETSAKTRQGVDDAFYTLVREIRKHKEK
# Sequence of KRAS G12D (P62937 whole entry): as the sequence (P62937 whole entry) above
Compound,pIC50 (NCI-H358 (K-Ras G12C)),pIC50 (K-Ras G12C),pIC50 (KRAS G12D),pIC50 (KRAS Q61H),pIC50 (NRAS Q61R),pIC50 (NRAS WT),"IC50 (NCI-H358 (K-Ras G12C); read-out: Additional H358 Cell Viability assay data (K-Ras G12C, IC50, uM), NCI-H358, 5-day treatment)"
"C=CC(=O)N1CCO[C@H]2CN(C(=O)N(C)[C@H](C(=O)N[C@H]3Cc4cccc(c4)-c4ccc5c(c4)c(c(-c4cccnc4[C@H](C)OC)n5CC)CC(C)(C)COC(=O)[C@@H]4CCCN(N4)C3=O)C(C)C)C[C@H]21 (atropisomer, axis not shown) [Example A610]",> 8.00,7.00 to 8.00,5.00 to 6.00,6.00 to 7.00,6.00 to 7.00,6.00 to 7.00,
"C=CC(=O)N1CCOC2(CCN(C(=O)N(C)[C@H](C(=O)N[C@H]3Cc4nc(cs4)-c4ccc5c(c4)c(c(-c4cccnc4[C@H](C)OC)n5CC)CC(C)(C)COC(=O)[C@@H]4CCCN(N4)C3=O)C(C)C)CC2)C1 (atropisomer, axis not shown) [Example A695]",7.00 to 8.00,6.00 to 7.00,5.00 to 6.00,6.00 to 7.00,6.00 to 7.00,6.00 to 7.00,
"C=C(C)C(=O)N1CC2(CCN(C(=O)N(C)[C@H](C(=O)N[C@H]3Cc4nc(cs4)-c4ccc5c(c4)c(c(-c4cccnc4[C@H](C)OC)n5CC)CC(C)(C)COC(=O)[C@@H]4CCCN(N4)C3=O)C(C)C)CC2)C1 (atropisomer, axis not shown) [Example A651]",7.00 to 8.00,7.00 to 8.00,6.00 to 7.00,7.00 to 8.00,6.00 to 7.00,6.00 to 7.00,
"CCn1c(-c2cccnc2[C@H](C)OC)c2c3cc(ccc31)-c1cccc(c1)C[C@H](NC(=O)[C@@H](COC1CN(C(=O)C#CC(C)(C)N(C)CCO)C1)C(C)C)C(=O)N1CCC[C@H](N1)C(=O)OCC(C)(C)C2 (atropisomer, axis not shown) [Example A657]",> 8.00,7.00 to 8.00,< 5.00,< 5.00,< 5.00,< 5.00,
"C=CC(=O)N(C)C[C@H]1CCN(C(=O)N(C)[C@H](C(=O)N[C@H]2Cc3nc(cs3)-c3ccc4c(c3)c(c(-c3cccnc3[C@H](C)OC)n4CC)CC(C)(C)COC(=O)[C@@H]3CCCN(N3)C2=O)C(C)C)C1 (atropisomer, axis not shown) [Example A653]",7.00 to 8.00,7.00 to 8.00,6.00 to 7.00,7.00 to 8.00,6.00 to 7.00,6.00 to 7.00,
"CCn1c(-c2cccnc2[C@H](C)OC)c2c3cc(ccc31)-c1csc(n1)C[C@H](NC(=O)[C@H](F)COC1CN(C(=O)C#CC(C)(C)N(C)C)C1)C(=O)N1CCC[C@H](N1)C(=O)OCC(C)(C)C2 (atropisomer, axis not shown) [Example A627]",> 8.00,> 8.00,< 5.00,5.00 to 6.00,< 5.00,< 5.00,
"C=CC(=O)N1CC2(CCN2C(=O)N(C)[C@H](C(=O)N[C@H]2Cc3cccc(c3)-c3ccc4c(c3)c(c(-c3cccnc3[C@H](C)OC)n4CC)CC(C)(C)COC(=O)[C@@H]3CCCN(N3)C2=O)C(C)C)C1 (atropisomer, axis not shown) [Example A684]",> 8.00,> 8.00,5.00 to 6.00,7.00 to 8.00,6.00 to 7.00,6.00 to 7.00,
"C=CC(=O)N1CC[C@H](C(=O)N(C)[C@H](C(=O)N[C@H]2Cc3cc(F)cc(c3)-c3ccc4c(c3)c(c(-c3cccnc3[C@H](C)OC)n4CC)CC(C)(C)COC(=O)[C@@H]3CCCN(N3)C2=O)C(C)C)C1 (atropisomer, axis not shown) [Example A342]",7.00 to 8.00,7.00 to 8.00,5.00 to 6.00,6.00 to 7.00,5.00 to 6.00,5.00 to 6.00,
"C/C=C/C(=O)N1CC2(CCN(C(=O)N(C)[C@H](C(=O)N[C@H]3Cc4nc(cs4)-c4ccc5c(c4)c(c(-c4cccnc4[C@H](C)OC)n5CC)CC(C)(C)COC(=O)[C@@H]4CCCN(N4)C3=O)C(C)C)CC2)C1 (atropisomer, axis not shown) [Example A671]",7.00 to 8.00,7.00 to 8.00,6.00 to 7.00,7.00 to 8.00,6.00 to 7.00,6.00 to 7.00,
"C=CC(=O)N1CC[C@H]2[C@@H](C1)CN2C(=O)N(C)[C@H](C(=O)N[C@H]1Cc2nc(cs2)-c2ccc3c(c2)c(c(-c2cccnc2[C@H](C)OC)n3CC)CC(C)(C)COC(=O)[C@@H]2CCCN(N2)C1=O)C(C)C (atropisomer, axis not shown) [Example A687]",7.00 to 8.00,6.00 to 7.00,5.00 to 6.00,7.00 to 8.00,6.00 to 7.00,6.00 to 7.00,
"CCn1c(-c2cccnc2[C@H](C)OC)c2c3cc(ccc31)-c1cccc(c1)C[C@H](NC(=O)[C@H](C(C)C)N1CC[C@@]3(CCN(C(=O)C#C[C@H]4COCCN4C)C3)C1=O)C(=O)N1CCC[C@H](N1)C(=O)OCC(C)(C)C2 (atropisomer, axis not shown) [Example A551]",,> 8.00,5.00 to 6.00,6.00 to 7.00,5.00 to 6.00,5.00 to 6.00,< 0.01 µM
"C=CC(=O)N(C)CC1CN(C(=O)N(C)[C@H](C(=O)N[C@H]2Cc3nc(cs3)-c3ccc4c(c3)c(c(-c3cccnc3[C@H](C)OC)n4CC)CC(C)(C)COC(=O)[C@@H]3CCCN(N3)C2=O)C(C)C)C1 (atropisomer, axis not shown) [Example A368]",> 8.00,7.00 to 8.00,6.00 to 7.00,7.00 to 8.00,7.00 to 8.00,7.00 to 8.00,

# Further lines, with some results ahead:
pIC50 (NCI-H358 (K-Ras G12C)),pIC50 (K-Ras G12C),pIC50 (KRAS G12D),pIC50 (KRAS Q61H),pIC50 (NRAS Q61R),pIC50 (NRAS WT),Compound,"IC50 (NCI-H358 (K-Ras G12C); read-out: Additional H358 Cell Viability assay data (K-Ras G12C, IC50, uM), NCI-H358, 5-day treatment)"
> 8.00,7.00 to 8.00,5.00 to 6.00,6.00 to 7.00,6.00 to 7.00,6.00 to 7.00,"CCn1c(-c2cccnc2[C@H](C)OC)c2c3cc(ccc31)-c1csc(n1)C[C@H](NC(=O)[C@H](C(C)C)N(C)C(=O)N1C[C@H]3CN(C(=O)C#CC(C)(C)N(C)C)CC[C@H]31)C(=O)N1CCC[C@H](N1)C(=O)OCC(C)(C)C2 (atropisomer, axis not shown) [Example A624]",
> 8.00,> 8.00,< 5.00,< 5.00,< 5.00,< 5.00,"CCn1c(-c2cccnc2[C@H](C)OC)c2c3cc(ccc31)-c1cccc(c1)C[C@H](NC(=O)C(COC1CN(C(=O)C#CC(C)(C)N(C)C)C1)C(C)C)C(=O)N1CCC[C@H](N1)C(=O)OCC(C)(C)C2 (stereo partly drawn) [Example A316, (2R)-2-(((1-(4-(dimethylamino)-4-methylpent-2-ynoyl)azetidin-3-yl)oxy)methyl)-N-((6^3S,4S)-1^1-ethyl-1^2-(2-((S)-1-methoxyethyl)pyridin-3-yl)-10,10-dimethyl-5,7-dioxo-6^1,6^2,6^3,6^4,6^5,6^6-hexahydro-1^1H-8-oxa-1(5,3)-indola-6(1,3)-pyridazina-2(1,3)-benzenacycloundecaphane-4-yl)-3-methylbutanamide]",
> 8.00,> 8.00,5.00 to 6.00,7.00 to 8.00,6.00 to 7.00,6.00 to 7.00,"C=CC(=O)N1CCO[C@@H]2CN(C(=O)N(C)[C@H](C(=O)N[C@H]3Cc4nc(cs4)-c4ccc5c(c4)c(c(-c4cccnc4[C@H](C)OC)n5CC)CC(C)(C)COC(=O)[C@@H]4CCCN(N4)C3=O)C(C)C)C[C@H]21 (atropisomer, axis not shown) [Example A543]",
< 6.00,< 5.00,< 5.00,< 5.00,< 5.00,< 5.00,C=CC(=O)N1CC[C@H](C(=O)N(C)[C@H](C(=O)N[C@H]2Cc3nc(ns3)-c3ccc4c(c3)c(c(-c3cncnc3)n4CC)CC(C)(C)COC(=O)[C@@H]3CCCN(N3)C2=O)C(C)C)C1 [Example A285],
> 8.00,6.00 to 7.00,5.00 to 6.00,6.00 to 7.00,6.00 to 7.00,6.00 to 7.00,"C=CC(=O)N1CC[C@@H]2[C@H]1CN2C(=O)N(C)[C@H](C(=O)N[C@H]1Cc2nc(cs2)-c2ccc3c(c2)c(c(-c2cccnc2[C@H](C)OC)n3CC)CC(C)(C)COC(=O)[C@@H]2CCCN(N2)C1=O)C(C)C (atropisomer, axis not shown) [Example A546]",
> 8.00,> 8.00,6.00 to 7.00,7.00 to 8.00,6.00 to 7.00,7.00 to 8.00,C=CC(=O)N1CC[C@H](C(=O)N(C)[C@H](C(=O)N[C@H]2Cc3cc(O)cc(c3)-c3ccc4c(c3)c(c(-c3cnn5c3[C@@H](OC)CCC5)n4CC)CC(C)(C)COC(=O)[C@@H]3CCCN(N3)C2=O)C(C)C)C1 [Example A300],
7.00 to 8.00,7.00 to 8.00,5.00 to 6.00,7.00 to 8.00,6.00 to 7.00,6.00 to 7.00,"C=CC(=O)N1CCO[C@H]2CCN(C(=O)N(C)[C@H](C(=O)N[C@H]3Cc4nc(cs4)-c4ccc5c(c4)c(c(-c4cccnc4[C@H](C)OC)n5CC)CC(C)(C)COC(=O)[C@@H]4CCCN(N4)C3=O)C(C)C)C[C@H]21 (atropisomer, axis not shown) [Example A580]",
